Data reported in article PMC11672637, “7-O-Carboxylic Acid-Substituted 3-O-Alkyl Difluoroquercetin; An Aztreonam-Potentiating Agent Against Carbapenemase-Producing Pseudomonas aeruginosa Through Simultaneous Inhibition of Metallo-β-Lactamase and Efflux Pump” (Antibiotics, 2024).

Assays:
[1] = biological target: AmpC; experiment: β-lactamase inhibition assay (nitrocefin); assay type: biochemical; conditions: nitrocefin substrate; read-out: BLi, IC50 AmpC
Method: (§1) Recombinant AmpC, OXA-48 (residues 23–265) and VIM-2 (residues 27–266) were prepared from Escherichia coli based on previously established protocols. KPC-2 and NDM-1 are commercially available from LifeSpan Biosciences, Inc., Seattle, WA, USA (LS-G26598) and RayBiotech, Inc., Peachtree Corners, GA, USA (230-00554), respectively. For β-lactamase inhibition assay, in a 96-well plate, 70–0.1 μM (in PBS) of the synthesized compounds (1~14) (100 μL) were mixed with diluted β-lactamase stock (2% DMSO in 200 μL). In a separate 96-well plate, a substrate of AmpC, KPC-2, OXA-48, and VIM-2 (nitrocefin) and NDM-1 (imipenem) were added into each well (final concentrations of 70 μM for nitrocefin and 100 μM for imipenem). After incubation at 37 °C for 20 min, the mixture of the synthesized compounds (1~14) and β-lactamase in one plate was added to the substrate in the other plate. Enzymatic hydrolysis of the substrate was then monitored by a Cytation 5 imaging multimode reader (BioTek Instruments Inc., Winooski, VT, USA) at 486 nm and 300 nm for nitrocefin and imipenem, respectively, for 15 min. The rates of hydrolysis in the presence of the inhibitors were determined when the reaction rate plateaued. Comparison of the enzymatic hydrolysis rates in the presence and the absence of inhibitors (100%) provided the percentage of enzyme inhibition at each concentration of the synthesized compounds. The IC50 values were obtained after non-linear regression (sigmoidal dose-responses) by GraphPad Prism 5 (GraphPad Software, Boston, MA, USA).

[2] = test system: efflux pump activity in P. aeruginosa (PA-017, blaNDM); experiment: EtBr accumulation, inhibition of efflux pump activity; assay type: cell-based; conditions: EtBr fluorescence compared with positive control CCCP
Method: The NDM-producing P. aeruginosa clinical isolate (PA-017, blaNDM) (5 mL, LB medium) was grown to reach the mid-log phase. After centrifugation at 3500 rpm for 15 min, the bacterial pellet was washed twice with PBS and resuspended to OD600 = 0.3 in PBS. To each well of a flat-bottomed black 96-well plate, 182 µL of the bacterial suspension, 4 µL of glucose [final concentration = 0.4% (w/v)], 4 µL of the synthesized compounds or positive control CCCP, and 10 µL of EtBr (final concentration = 1 µg/mL) were added. The plate was incubated at 37 °C, and fluorescence emission from EtBr (λex 480 nm/λem 630 nm) was recorded every 2 min (for 60 min) using a Cytation 5 imaging multi-mode reader (BioTek Instruments, Inc., Winooski, VT, USA).

[3] = test system: NDM-1-Producing P. aeruginosa (PA-017, blaNDM); experiment: MIC / checkerboard with ATM; assay type: cell-based; conditions: PA-017; for MIC: Pseudomonas aeruginosa, compound alone, read-out: MIC, Cmpd
[4] = rat, cited from earlier work
[5] = test system: Ambler Class A β-lactamases; parameters: method as in earlier work; conditions: Table S1; cited from earlier work
[6] = test system: Ambler Class C β-lactamases; parameters: method as in earlier work; conditions: Table S1; cited from earlier work
[7] = test system: Ambler Class D β-lactamases; parameters: method as in earlier work; conditions: Table S1; cited from earlier work
[8] = biological target: T1, KPC-2 (Klebsiella pneumoniae, UniProt Q9F663); experiment: β-lactamase inhibition assay (nitrocefin); assay type: biochemical; conditions: nitrocefin substrate; read-out: BLi, IC50 KPC-2
T1 construct: purchased LifeSpan Biosciences, Inc. LS-G26598
T1 sequence (Q9F663 25-293, looked up, species assumed): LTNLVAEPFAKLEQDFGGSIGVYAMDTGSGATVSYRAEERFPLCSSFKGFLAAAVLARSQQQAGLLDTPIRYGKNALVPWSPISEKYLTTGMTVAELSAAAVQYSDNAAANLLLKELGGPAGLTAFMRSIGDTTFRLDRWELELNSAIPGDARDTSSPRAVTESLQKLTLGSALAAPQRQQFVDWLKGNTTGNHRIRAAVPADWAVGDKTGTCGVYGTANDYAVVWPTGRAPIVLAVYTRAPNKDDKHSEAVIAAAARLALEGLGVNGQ
Method: as §1

[9] = biological target: T2, OXA-48 (Klebsiella pneumoniae, UniProt Q6XEC0); experiment: β-lactamase inhibition assay (nitrocefin); assay type: biochemical; conditions: nitrocefin substrate; read-out: BLi, IC50 OXA-48
T2 construct: OXA-48 (residues 23–265); made in house; host or cells: Escherichia coli
T2 sequence (Q6XEC0 23-265 limits assumed): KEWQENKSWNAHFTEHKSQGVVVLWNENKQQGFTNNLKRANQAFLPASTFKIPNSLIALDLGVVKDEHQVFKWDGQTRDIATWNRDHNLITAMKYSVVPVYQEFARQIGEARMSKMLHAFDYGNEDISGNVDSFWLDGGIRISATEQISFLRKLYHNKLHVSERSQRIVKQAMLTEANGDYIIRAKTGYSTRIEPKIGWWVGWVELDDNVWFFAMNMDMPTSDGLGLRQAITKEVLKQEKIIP
Method: as §1

[10] = biological target: T3, VIM-2 (Escherichia coli, UniProt Q5U7L7); experiment: β-lactamase inhibition assay (nitrocefin); assay type: biochemical; conditions: nitrocefin substrate; read-out: BLi, IC50 VIM-2
T3 construct: VIM-2 (residues 27–266); made in house; host or cells: Escherichia coli
Method: as §1

[11] = biological target: T4, NDM-1 (Klebsiella pneumoniae, UniProt C7C422); experiment: β-lactamase inhibition assay (imipenem); assay type: biochemical; conditions: imipenem substrate; read-out: BLi, IC50 NDM-1
T4 construct: purchased RayBiotech, Inc. 230-00554
T4 sequence (C7C422 29-270, looked up, species assumed): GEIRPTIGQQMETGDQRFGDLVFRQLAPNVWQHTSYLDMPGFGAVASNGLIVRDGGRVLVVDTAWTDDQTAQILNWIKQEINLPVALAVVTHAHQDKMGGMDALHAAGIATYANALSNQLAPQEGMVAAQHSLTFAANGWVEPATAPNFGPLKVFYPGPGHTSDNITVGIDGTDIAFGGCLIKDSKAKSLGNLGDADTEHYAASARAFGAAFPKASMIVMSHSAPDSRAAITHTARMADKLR
Method: as §1

Row | Structure (SMILES) | IC50 [1] | EPi (inhibition of efflux pump activity) [2] | FD (fold decrease in the MIC of ATM upon combination with the compound) [3] | MIC [3] | F (mean oral bioavailability) [4] | AUClast ([4]; oral administration) | Cmax ([4]; oral administration) | BLi activity (Ambler Class A) [5] | BLi activity (Ambler Class C) [6] | BLi activity (Ambler Class D) [7] | IC50 [8] | IC50 [9] | IC50 [10] | IC50 [11]
1 | CC(C)(C)CCOc1c(-c2ccc(F)c(F)c2)oc2cc(O)cc(O)c2c1=O [Compound 1] | 18.9 ± 1.8 µM | ↑↑↑ ^e | 2 | > 256 mg/L | 0.27% | 0.02 µg·h/mL | 0.01 µg/mL |  |  |  |  |  |  | 
2 | NC(=O)[C@@H]1CC[C@@H]2CN1C(=O)N2OS(=O)(=O)O [AVI, avibactam] |  |  |  |  |  |  |  | inhibits | inhibits | inhibits |  |  |  | 
3 | CC(C)(C)CCOc1c(-c2ccc(F)c(F)c2)oc2cc(OCC(=O)N3CCCCC3)cc(O)c2c1=O [Compound 10, 2-(3,4-Difluorophenyl)-3-(3,3-dimethylbutoxy)-5-hydroxy-7-(2-oxo-2-(piperidin-1-yl)ethoxy)-4H-chromen-4-one] | > 50 µM | - ^f | 1 | > 256 mg/L |  |  |  |  |  |  | > 50 µM | > 50 µM | > 100 µM | > 50 µM
4 | CN1CCN(CCOc2cc(O)c3c(=O)c(OCCC(C)(C)C)c(-c4ccc(F)c(F)c4)oc3c2)CC1 [Compound 13, 2-(3,4-Difluorophenyl)-3-(3,3-dimethylbutoxy)-5-hydroxy-7-(2-(4-methylpiperazin-1-yl)ethoxy)-4H-chromen-4-one] | > 50 µM | - ^f | 2 | > 256 mg/L |  |  |  |  |  |  | > 50 µM | > 100 µM | > 100 µM | > 50 µM
5 | O=C(O)COc1cc(O)c2c(=O)c(OCCC3CCCC3)c(-c3ccc(F)c(F)c3)oc2c1 [Compound 6, 2-((3-(2-Cyclopentylethoxy)-2-(3,4-difluorophenyl)-5-hydroxy-4-oxo-4H-chromen-7-yl)oxy)acetic Acid] | > 50 µM | ↑ ^g | 4 | > 256 mg/L |  |  |  |  |  |  | > 50 µM | > 100 µM | 37.3 ± 0.6 µM | 16.1 ± 1.1 µM
6 | O=C(O)CC(Oc1cc(O)c2c(=O)c(OCCC3CCCCC3)c(-c3ccc(F)c(F)c3)oc2c1)C(=O)O (stereo not drawn) [Compound 4, 2-((3-(2-Cyclohexylethoxy)-2-(3,4-difluorophenyl)-5-hydroxy-4-oxo-4H-chromen-7-yl)oxy)succinic Acid] | > 50 µM | - ^f | 1 | > 256 mg/L |  |  |  |  |  |  | > 50 µM | > 100 µM | > 100 µM | > 50 µM
7 | C[N+](C)(CCNC(=O)COc1cc(O)c2c(=O)c(OCCC3CCCCC3)c(-c3ccc(F)c(F)c3)oc2c1)CC(=O)[O-] [Compound 8, 2-((2-(2-((3-(2-Cyclohexylethoxy)-2-(3,4-difluorophenyl)-5-hydroxy-4-oxo-4H-chromen-7-yl)oxy)acetamido)ethyl)dimethylammonio)acetate] | > 50 µM | - ^f | 2 | > 256 mg/L |  |  |  |  |  |  | > 50 µM | > 100 µM | > 100 µM | > 50 µM
8 | O=C(O)COc1cc(O)c2c(=O)c(OCCC3CCCCC3)c(-c3ccc(F)c(F)c3)oc2c1 [Compound 7, 2-((3-(2-Cyclohexylethoxy)-2-(3,4-difluorophenyl)-5-hydroxy-4-oxo-4H-chromen-7-yl)oxy)acetic Acid] | > 50 µM | ↑ ^g | 4 | > 256 mg/L |  |  |  |  |  |  | > 50 µM | > 100 µM | 21 ± 1.3 µM | 14.7 ± 1.6 µM
9 | CN1CCN(CCOc2cc(O)c3c(=O)c(OCCC4CCCC4)c(-c4ccc(F)c(F)c4)oc3c2)CC1 [Compound 14, 3-(2-Cyclopentylethoxy)-2-(3,4-difluorophenyl)-5-hydroxy-7-(2-(4-methylpiperazin-1-yl)ethoxy)-4H-chromen-4-one] | > 50 µM | - ^f | 2 | > 256 mg/L |  |  |  |  |  |  | > 50 µM | > 100 µM | > 100 µM | > 50 µM
